# Experimental data published in paper PMC5601359 (Journal of Medicinal Chemistry, 2017).
# Where two headings read alike, the source gives them in different places.
# What was measured:
# [1] = tested on: human osteosarcoma (HOS) cells; settings: 50% reduction in the level of ATP in HOS cells; cited from earlier work
# [2] = tested on: HIV-1 vector carrying T66I IN mutant; settings: cited from earlier work; for EC50: read-out: EC50 T66I, vector harboring T66I IN
# [3] = tested on: HIV-1 vector carrying WT IN; settings: read-out: EC50 WT; HOS cells, vector harboring WT IN; cited from earlier work
# [4] = tested on: HIV-1 vector carrying H51Y IN mutant; settings: cited from earlier work; for EC50: read-out: EC50 H51Y, vector harboring H51Y IN
# [5] = tested on: HIV-1 vector carrying R263K IN mutant; settings: cited from earlier work; for EC50: read-out: EC50 R263K, vector harboring R263K IN
# [6] = tested on: HIV-1 vector carrying H51Y/R263K IN mutant; settings: cited from earlier work; for EC50: read-out: EC50 H51Y/R263K, vector harboring H51Y/R263K IN
# [7] = tested on: HIV-1 vector carrying E92Q IN mutant; settings: cited from earlier work; for EC50: read-out: EC50 E92Q, vector harboring E92Q IN
# [8] = tested on: HIV-1 vector carrying G118R IN mutant; settings: cited from earlier work; for EC50: read-out: EC50 G118R, vector harboring G118R IN
# [9] = tested on: HIV-1 vector carrying T66I IN mutant; assay: single-round HIV-1 infectivity assay, vector with T66I IN; assay type: cell-based; settings: EC50 of compound/EC50 of DTG
# [10] = molecular target: T1, HIV-1 IN (Human immunodeficiency virus type 1 group M subtype B, UniProt P12497); assay: in vitro IN assay, strand transfer; assay type: biochemical
# [11] = tested on: HIV-1 vector carrying H51Y/R263K IN mutant; assay: single-round HIV-1 infectivity assay, vector with H51Y/R263K IN; assay type: cell-based; settings: EC50 of compound/EC50 of DTG
# [12] = tested on: HIV-1 vector carrying N155H IN mutant; assay: single-round HIV-1 infectivity assay, vector with N155H IN; assay type: cell-based; settings: for fold improvement relative to DTG, N155H: EC50 of compound/EC50 of DTG; for FC, fold change relative to WT, N155H: EC50 of mutant/EC50 of WT; for EC50: Human immunodeficiency virus 1, HOS, read-out: EC50 N155H
# [13] = tested on: HIV-1 vector carrying G140S/Q148H IN mutant; assay: single-round HIV-1 infectivity assay, vector with G140S/Q148H IN; assay type: cell-based; settings: for FC, fold change relative to WT, G140S/Q148H: EC50 of mutant/EC50 of WT; for EC50: Human immunodeficiency virus 1, HOS, read-out: EC50 G140S/Q148H
# [14] = tested on: HIV-1 vector carrying H51Y IN mutant; assay: single-round HIV-1 infectivity assay, vector with H51Y IN; assay type: cell-based; settings: EC50 of compound/EC50 of DTG
# [15] = tested on: HIV-1 vector carrying WT IN; assay: single-round HIV-1 infectivity assay, vector with WT IN; assay type: cell-based; settings: EC50 of compound/EC50 of DTG
# [16] = tested on: HIV-1 vector carrying E92Q IN mutant; assay: single-round HIV-1 infectivity assay, vector with E92Q IN; assay type: cell-based; settings: EC50 of compound/EC50 of DTG
# [17] = tested on: HIV-1 vector carrying R263K IN mutant; assay: single-round HIV-1 infectivity assay, vector with R263K IN; assay type: cell-based; settings: EC50 of compound/EC50 of DTG
# [18] = tested on: HIV-1 vector carrying Y143R IN mutant; assay: single-round HIV-1 infectivity assay, vector with Y143R IN; assay type: cell-based; settings: for FC, fold change relative to WT, Y143R: EC50 of mutant/EC50 of WT; for EC50: Human immunodeficiency virus 1, HOS, read-out: EC50 Y143R
# [19] = tested on: HIV-1 vector carrying G118R IN mutant; assay: single-round HIV-1 infectivity assay, vector with G118R IN; assay type: cell-based; settings: EC50 of compound/EC50 of DTG
# [20] = in vitro; settings: human
# [21] = tested on: HIV-1 vector carrying N155H IN mutant; settings: cited from earlier work; for EC50: read-out: EC50 N155H, HOS cells, vector harboring N155H IN; for FC, fold change relative to WT, N155H: EC50 of mutant/EC50 of WT
# [22] = molecular target: T1, HIV-1 IN; assay: in vitro IN assay, 3′-processing; assay type: biochemical
# [23] = tested on: HIV-1 vector carrying Y143R IN mutant; settings: cited from earlier work; for FC, fold change relative to WT, Y143R: EC50 of mutant/EC50 of WT; for EC50: read-out: EC50 Y143R, HOS cells, vector harboring Y143R IN
# [24] = tested on: HIV-1 vector carrying G140S/Q148H IN mutant; settings: cited from earlier work; for FC, fold change relative to WT, G140S/Q148H: EC50 of mutant/EC50 of WT; for EC50: read-out: EC50 G140S/Q148H, HOS cells, vector harboring G140S/Q148H IN
structure (smiles),measurement,setting,value
"Cc1nnc(C(=O)NC(C)(C)c2nc(C(=O)NCc3ccc(F)cc3)c(O)c(=O)n2C)o1 [RAL (1), raltegravir]",CC50,[1],> 250000 nM
same,EC50,[2],2.8 ± 0.4 nM
same,EC50,[3],4 ± 2 nM
same,EC50,[4],3.4 ± 0.2 nM
same,EC50,[5],5.7 ± 2.3 nM
same,EC50,[6],6 ± 2.3 nM
same,EC50,[7],30 ± 10 nM
same,EC50,[8],36 ± 5 nM
"COC(=O)CCc1cnc2c(c1)c(N)c(C(=O)NCc1ccc(F)cc1F)c(=O)n2O [6p, Methyl 3-(5-Amino-6-((2,4-difluorobenzyl)carbamoyl)-8-hydroxy-7-oxo-7,8-dihydro-1,8-naphthyridin-3-yl)propanoate]","fold improvement relative to DTG, T66I",[9],0.53 ± 0.06 (0.59×)
same,IC50,"[10]; ST IC50, as stated in text",≤ 10 nM
same,"fold improvement relative to DTG, H51Y/R263K",[11],2.4 ± 0.8 (0.15×)
same,"fold improvement relative to DTG, N155H",[12],2.3 ± 0.2 (0.64×)
same,"fold improvement relative to DTG, G140S/Q148H",[13]; EC50 of compound/EC50 of DTG,5.3 ± 1.8 (0.91×)
same,"fold improvement relative to DTG, H51Y",[14],0.63 ± 0.30 (0.20×)
same,"fold improvement relative to DTG, WT",[15],0.67 ± 0.15 (0.42×)
same,"fold improvement relative to DTG, E92Q",[16],2.0 ± 1.1 (0.87×)
same,"fold improvement relative to DTG, R263K",[17],0.5 ± 0.0 (0.05×)
same,"fold improvement relative to DTG, Y143R",[18]; EC50 of compound/EC50 of DTG,0.67 ± 0.23 (0.16×)
same,"fold improvement relative to DTG, G118R",[19],4.8 ± 1.5 (0.37×)
"Nc1c(C(=O)NCc2ccc(F)cc2F)c(=O)n(O)c2ncc(CCCCCCOC(=O)c3ccccc3)cc12 [6c, 6-(5-Amino-6-((2,4-difluorobenzyl)carbamoyl)-8-hydroxy-7-oxo-7,8-dihydro-1,8-naphthyridin-3-yl)hexyl Benzoate]",IC50,"[10]; in vitro IC50 ST, gel-based protocol, Mg2+ cofactor",3300 ± 600 nM
same,"FC, fold change relative to WT, N155H",[12],1 ×
same,EC50,[12],5.4 ± 1.9 nM
same,"FC, fold change relative to WT, G140S/Q148H",[13],4 ×
same,EC50,[13],21 ± 7.8 nM
same,CC50,[20],14400 ± 4800 nM
same,"FC, fold change relative to WT, Y143R",[18],0.7 ×
same,EC50,[18],3.5 ± 1.2 nM
"Nc1c(C(=O)NCc2ccc(F)cc2F)c(=O)n(O)c2ncc(CCC(=O)NCCO)cc12 [6n, 4-Amino-N-(2,4-difluorobenzyl)-1-hydroxy-6-(3-((2-hydroxyethyl)amino)-3-oxopropyl)-2-oxo-1,2-dihydro-1,8-naphthyridine-3-carboxamide]",IC50,"[10]; ST IC50, as stated in text",< 10 nM
Nc1c(C(=O)NCc2ccc(F)cc2F)c(=O)n(O)c2ncc(CCCCCO)cc12 [6′b],CC50,[1],> 250000 nM
same,"fold improvement relative to DTG, H51Y/R263K",[11],2.6 ± 1.4 (0.16×)
same,"fold improvement relative to DTG, N155H",[12],2.4 ± 0.8 (0.67×)
same,"fold improvement relative to DTG, WT",[15],1.3 ± 0.2 (0.81×)
same,"fold improvement relative to DTG, R263K",[17],2.6 ± 0.1 (0.24×)
same,"fold improvement relative to DTG, G118R",[19],5.3 ± 1.6 (0.41×)
"Nc1c(C(=O)NCc2ccc(F)cc2F)c(=O)n(O)c2ncc(/C=C/C(=O)NCCO)cc12 [6o, (E)-4-Amino-N-(2,4-difluorobenzyl)-1-hydroxy-6-(3-((2-hydroxyethyl)amino)-3-oxoprop-1-en-1-yl)-2-oxo-1,2-dihydro-1,8-naphthyridine-3-carboxamide]",IC50,"[10]; ST IC50, as stated in text",< 10 nM
Nc1c(C(=O)NCc2ccc(F)cc2F)c(=O)n(O)c2ncccc12 [5′d],CC50,[1],> 250000 nM
same,EC50,[3],1.1 ± 0.7 nM
"C[C@@H]1CCO[C@H]2Cn3cc(C(=O)NCc4ccc(F)cc4F)c(=O)c(O)c3C(=O)N12 [DTG (3), dolutegravir]",CC50,[1],> 250000 nM
same,EC50,[2],0.9 ± 0.8 nM
same,EC50,[3],1.6 ± 0.9 nM
same,EC50,[5],11 ± 3 nM
same,EC50,[6],16 ± 2 nM
same,EC50,[7],2.3 ± 0.4 nM
same,EC50,[8],13 ± 5 nM
same,EC50,[21],3.6 ± 1.3 nM
COC(=O)CNc1c(C(=O)NCc2ccc(F)cc2F)c(=O)n(O)c2ncccc12 [5′g],"FC, fold change relative to WT, N155H",[12],5 ×
same,EC50,[12],19 ± 7 nM
same,"FC, fold change relative to WT, G140S/Q148H",[13],9 ×
same,EC50,[13],36 ± 16 nM
same,"FC, fold change relative to WT, Y143R",[18],1 ×
same,EC50,[18],4.6 ± 2.2 nM
"COC(=O)CNc1c(C(=O)NCc2ccc(F)cc2F)c(=O)n(O)c2nc(N3CCOCC3)ccc12 [5i, Methyl 2-((3-((2,4-Difluorobenzyl)carbamoyl)-1-hydroxy-7-morpholino-2-oxo-1,2-dihydro-1,8-naphthyridin-4-yl)amino)acetate]",IC50,[22],> 333000 nM
"COC(=O)CNc1c(C(=O)NCc2ccc(F)cc2F)c(=O)n(O)c2nc(N3CCCCC3)ccc12 [5h, Methyl 2-((3-((2,4-Difluorobenzyl)carbamoyl)-1-hydroxy-2-oxo-7-(piperidin-1-yl)-1,2-dihydro-1,8-naphthyridin-4-yl)amino)acetate]",IC50,[22],> 333000 nM
"CC(=O)OCCCc1cnc2c(c1)c(N)c(C(=O)NCc1ccc(F)cc1F)c(=O)n2O [6b, 3-(5-Amino-6-((2,4-difluorobenzyl)carbamoyl)-8-hydroxy-7-oxo-7,8-dihydro-1,8-naphthyridin-3-yl)propyl Acetate]",IC50,"[10]; ST IC50, as stated in text",≤ 10 nM
"Nc1c(C(=O)NCc2ccc(F)cc2F)c(=O)n(O)c2ncc(CCC(=O)O)cc12 [6i, 3-(5-Amino-6-((2,4-difluorobenzyl)carbamoyl)-8-hydroxy-7-oxo-7,8-dihydro-1,8-naphthyridin-3-yl)propanoic Acid]",IC50,"[10]; ST IC50, as stated in text",≤ 10 nM
"COc1cc2c(cc1Cc1cccc(Cl)c1F)c(=O)c(C(=O)O)cn2[C@H](CO)C(C)C [EVG (2), elvitegravir]",CC50,[1],> 250000 nM
same,"FC, fold change relative to WT, T66I",[2]; EC50 of mutant/EC50 of WT,10 ×
same,EC50,[2],66 ± 1 nM
same,EC50,[3],6.4 ± 0.8 nM
same,"FC, fold change relative to WT, Y143R",[23],1 ×
same,EC50,[23],7.9 ± 2.3 nM
same,"FC, fold change relative to WT, H51Y",[4]; EC50 of mutant/EC50 of WT,0.7 ×
same,EC50,[4],4.5 ± 2.1 nM
same,"FC, fold change relative to WT, R263K",[5]; EC50 of mutant/EC50 of WT,2 ×
same,EC50,[5],10 ± 6 nM
same,"FC, fold change relative to WT, H51Y/R263K",[6]; EC50 of mutant/EC50 of WT,8 ×
same,EC50,[6],53 ± 18 nM
same,"FC, fold change relative to WT, G140S/Q148H",[24],891 ×
same,EC50,[24],5700 ± 1100 nM
same,"FC, fold change relative to WT, E92Q",[7]; EC50 of mutant/EC50 of WT,24 ×
same,EC50,[7],154 ± 34 nM
same,"FC, fold change relative to WT, G118R",[8]; EC50 of mutant/EC50 of WT,3 ×
same,EC50,[8],21 ± 10 nM
same,"FC, fold change relative to WT, N155H",[21],14 ×
same,EC50,[21],90 ± 18 nM
O=C(NCc1ccc(F)cc1F)c1c(O)c2cccnc2n(O)c1=O [5′a],CC50,[1],137000 ± 20000 nM
same,EC50,[3],6.2 ± 2.9 nM
same,"FC, fold change relative to WT, Y143R",[23],2 ×
same,EC50,[23],11 ± 2 nM
same,"FC, fold change relative to WT, G140S/Q148H",[24],50 ×
same,EC50,[24],308 ± 125 nM
same,"FC, fold change relative to WT, N155H",[21],5 ×
same,EC50,[21],31 ± 8 nM
